pIC50: −log10 of the molar value.
Key:
IRAK4 [1] = target: T1, IRAK4 (Homo sapiens (Human), UniProt Q9NWZ3); assay: Western blot assay for assessing degradation of IRAK4 in MCF7 cells; assay type: cell-based; settings: Table 5, IRAK4 degradation, 24 hour incubation; for DC50: read-out: IRAK4 DC50; for Dmax: read-out: IRAK4 Dmax (%)
Procedure: Western Blot Assay for Assessing Degradation of IRAK4.
MCF7 cells, purchased from ATCC (Manassas, Va.), were used at a passage range of 2-19. Cells were seeded at 50% confluency in 96-well plates at 180 μl/well in cell media (Dulbecco's Modified Eagle medium/nutrient F-12 Ham-10% Fetal Bovine Serum) and incubated overnight. The next morning, compounds were serially diluted and added (20 μl into 180 μl media) at a final DMSO concentration of 0.1%. Cells were rinsed with cell media and replaced with compounds in media, followed by incubation overnight. After a 24 hour incubation with compound, cell were harvested (90-100% confluent at harvest). Cells were then washed once with 100 μl of Dulbecco's hosphate-buffered saline and then lysed with 40 μl of lysis buffer (1×RIPA+HALT protease inhibitor+HALT phosphatase inhibitor) on ice for 10 minutes. Lysates were then cleaned by filtration in 1.2 µm filter plates followed by western blotting. For each sample, 30 μl of lysate were added to 10 μl of 4×LDS sample buffer, then denatured at 95° C. for 5 minutes in the thermal cycler and placed on ice. Fifteen μL of each sample were then loaded on 4-15% Tris/Glycine gels and run for 25 minutes at 250 (constant) volts in 1× Tris/Glycine buffer. Protein was transferred from gels to nitrocellulose using a BioRad Turbo dry-transfer unit with the Turbo/midi default program. All blots were rinsed with ddH2O and blocked for 1 hour at room temperature in 5% bovine serum albumin (BSA) in tris-buffered saline-Tween 20 (TBS-T) (0.1%) on rocker. Blots were exposed to primary antibody in 5% BSA in TBS-T (0.1%) overnight at 4° C. on rocker. Primary antibodies, diluted 1:1000 in […], were as follows: anti-IRAK4 (cat. #: ab119942, Abcam, Cambridge, Mass.), anti-IRAK1 (cat. #: CST 4504S, Cell Signaling Technology, Danvers, Mass.), and anti-Beta-actin (Cat. #: ab8227, Abcam, Cambridge, Mass.). Blots were then washed with TBS-T (0.1%) three times for 5 minutes on a rocker at room temperature. Secondary antibody (1:18,000 anti-rabbit-HRP and/or anti-mouse-HRP in 5% BSA in TBST (0.1%) was then added, and blots incubated at room temperature rocker for 1 hour. Blots were washed 3 times in TBS-T (0.1%) for 5 minutes at room temperature on the rocker. Signal was developed with Femto Max substrate for 5 minutes and blots read on a ChemiDoc. Percent degradation was assessed by comparing IRAK4 signal in compound vs. DMSO treated lysates.

IRAK4 [2] = target: T1, IRAK4; assay: Biochemical Z'-Lyte FRET assay for IRAK4 kinase inhibition; settings: 2 nM enzyme, 1 mM ATP, 2 μM substrate
Procedure: Biochemical Assay for IRAK4 Kinase Inhibition.
A Z′-Lyte assay based on a fluorescence resonance energy transfer (FRET) readout was developed for measuring IRAK4-dependent phosphorylation of a FRET-peptide substrate as described by Thermo Fisher Scientific (Grand Island, N.Y.). At a starting concentration of 1.5 mM, the identified compounds were serially diluted with 100% dimethyl sulfoxide (DMSO) in 3-fold increments, into Greiner bio-one 96-well plates (cat. #: 650201, Greiner bio-one, Monroe, N.C.). Compounds were then transferred to intermediate Greiner bio-one 96-well plates and diluted 10-fold with Kinase assay buffer (25 mM HEPES, pH 7.5, 10 mM MgCl2, 10 mM MnCl2, 1 mM EGTA, and 0.01% Brij-35, 2 mM DTT). Three μL of the serially diluted compounds were then transferred in duplicate to low-volume 384-well black proxiplates (cat. #: 6008269; Perkin Elmer, Akron, Ohio), to give duplicate twelve-point concentration curves. Six μl of a 2.5× solution of IRAK4 enzyme (cat #: 40064, BPS Bioscience, San Diego, Calif.) in kinase buffer was added to each well, followed by a 10 minutes pre-incubation step. Reactions were initiated by adding 6 μl of a 2.5× substrate mix of ATP and Z′-Lyte Ser/Thr 7 peptide (cat. #: PV3180, Thermo Fisher Scientific, Grand Island, N.Y.) and proceeded at room temperature for 1 hour. The final concentration of key reagents in the 15 uL kinase reactions were 2 μM substrate, 2 nM enzyme, and 1 mM ATP, with dose responses starting at 30 μM compound. At the end of the kinase reactions, 5 μl of developing solution (as instructed in for cat. #: PV3180, Thermo Fisher Scientific, Grand Island, N.Y.) was added to each well and incubated at room temperature for 1 hour. All wells were read on an Envision 2105 Multilabel fluorescence plate reader (Perkin Elmer, Waltham, Mass.) at 400 nm excitation and 460 nm/530 nm emission. Plus and minus 100% inhibition controls were used to calculate percent inhibition and IC50 curves were generated using Graphpad Prism (La Jolla, Calif.).

T1 sequence (Q9NWZ3 whole entry): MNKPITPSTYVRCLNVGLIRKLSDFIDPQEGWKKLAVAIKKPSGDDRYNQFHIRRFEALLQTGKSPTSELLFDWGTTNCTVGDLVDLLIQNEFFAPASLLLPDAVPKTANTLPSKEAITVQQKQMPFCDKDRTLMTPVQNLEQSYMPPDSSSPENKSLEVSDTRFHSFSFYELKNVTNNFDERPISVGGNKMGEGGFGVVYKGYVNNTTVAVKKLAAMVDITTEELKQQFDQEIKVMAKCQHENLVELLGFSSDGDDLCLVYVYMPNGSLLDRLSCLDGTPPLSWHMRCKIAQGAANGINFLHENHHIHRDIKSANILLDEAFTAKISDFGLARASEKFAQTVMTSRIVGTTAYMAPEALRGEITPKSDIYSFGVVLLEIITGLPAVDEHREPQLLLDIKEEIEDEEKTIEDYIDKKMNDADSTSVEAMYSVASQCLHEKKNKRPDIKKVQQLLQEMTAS

Row | DC50 (IRAK4 [1]) | Dmax (IRAK4 [1]) | pIC50 (IRAK4 [2]) | Structure (SMILES)
1 | ≥ 1000 nM | > 70% | 6.00 to 6.52 | Cc1ncsc1-c1ccc(CNC(=O)[C@@H]2C[C@@H](O)CN2C(=O)[C@@H](NC(=O)COCCN2CCN(Cc3ccc4c(c3)nc(NC(=O)c3cccc(C(F)(F)F)c3)n4C3CCC(CO)CC3)CC2)C(C)(C)C)cc1 (mixture of isomers) [compound 11, (2S,4R)-4-hydroxy-1-((S)-2-(2-(2-(4-((1-((1SR,4SR)-4-(hydroxymethyl)cyclohexyl)-2-(3-(trifluoromethyl)benzamido)-1H-benzo[d]imidazol-5-yl)methyl)piperazin-1-yl)ethoxy)acetamido)-3,3-dimethylbutanoyl)-N-(4-(4-methylthiazol-5-yl)benzyl)pyrrolidine-2-carboxamide]
2 | ≥ 1000 nM |  | 7.00 to 7.52 | Cc1ncsc1-c1ccc(CNC(=O)[C@@H]2C[C@@H](O)CN2C(=O)[C@@H](NC(=O)COCCOCCN2CCN(Cc3ccc4c(c3)nc(NC(=O)c3cccc(C(F)(F)F)c3)n4[C@H]3CC[C@@H](CO)CC3)CC2)C(C)(C)C)cc1 (racemic) [compound 12, (2S,4R)-4-hydroxy-1-((S)-2-(2-(2-(2-(4-((1-((1SR,4SR)-4-(hydroxymethyl)cyclohexyl)-2-(3-(trifluoromethyl)benzamido)-1H-benzo[d]imidazol-5-yl)methyl)piperazin-1-yl)ethoxy)ethoxy)acetamido)-3,3-dimethylbutanoyl)-N-(4-(4-methylthiazol-5-yl)benzyl)pyrrolidine-2-carboxamide]
3 | ≥ 1000 nM |  | 6.00 to 6.52 | Cc1ncsc1-c1ccc(CNC(=O)[C@@H]2C[C@@H](O)CN2C(=O)[C@@H](NC(=O)COCCOCCOCCN2CCN(Cc3ccc4c(c3)nc(NC(=O)c3cccc(C(F)(F)F)c3)n4C3CCC(CO)CC3)CC2)C(C)(C)C)cc1 (mixture of isomers) [compound 13, (2S,4R)-1-((S)-2-(tert-butyl)-14-(4-((1-((1SR,4SR)-4-(hydroxymethyl)cyclohexyl)-2-(3-(trifluoromethyl)benzamido)-1H-benzo[d]imidazol-5-yl)methyl)piperazin-1-yl)-4-oxo-6,9,12-trioxa-3-azatetradecanoyl)-4-hydroxy-N-(4-(4-methylthiazol-5-yl)benzyl)pyrrolidine-2-carboxamide]
4 |  | 30 to 50% |  | O=C1CCC(N2C(=O)c3ccc(OCCN4CCN(Cc5ccc6c(c5)nc(NC(=O)c5cccc(C(F)(F)F)c5)n6C5CCC(CO)CC5)CC4)cc3C2=O)C(=O)N1 (centres unmarked) [compound 1, N-(5-((4-(2-((2-(2,6-dioxopiperidin-3-yl)-1,3-dioxoisoindolin-5-yl)oxy)ethyl)piperazin-1-yl)methyl)-1-((1s,4s)-4-(hydroxymethyl)cyclohexyl)-1H-benzo[d]imidazol-2-yl)-3-(trifluoromethyl)benzamide]
5 |  | > 70% |  | O=C1CCC(N2C(=O)c3ccc(OCCN4CCC(CN5CCN(Cc6ccc7c(c6)nc(NC(=O)c6cccc(C(F)(F)F)c6)n7C6CCC(CO)CC6)CC5)CC4)cc3C2=O)C(=O)N1 (centres unmarked) [compound 10]
6 |  |  | ≤ 6.00 | N#Cc1ccc2ncnc(N[C@H]3CC[C@@H](N4CCN(S(=O)(=O)CCOCCOCCOc5ccc6c(c5)C(=O)N(C5CCC(=O)NC5=O)C6=O)CC4)CC3)c2c1 (some centres unmarked) [compound 37]
7 |  |  | ≤ 6.00 | N#Cc1ccc2ncnc(N[C@H]3CC[C@H](N4CCN(S(=O)(=O)CCOCCOCCOCCOc5ccc6c(c5)C(=O)N(C5CCC(=O)NC5=O)C6=O)CC4)CC3)c2c1 (some centres unmarked) [compound 38]
8 |  |  | ≤ 6.00 | N#Cc1ccc2ncnc(N[C@H]3CC[C@@H](N4CCN(S(=O)(=O)CCOCCOCCOCCOc5ccc6c(c5)C(=O)N(C5CCC(=O)NC5=O)C6=O)CC4)CC3)c2c1 (some centres unmarked) [compound 39]
9 | ≥ 1000 nM |  |  | O=C1CCC(N2C(=O)c3ccc(OCCOCCOCCOCC4CCC(n5c(NC(=O)c6cccc(C(F)(F)F)c6)nc6cc(CN7CCCCC7)ccc65)CC4)cc3C2=O)C(=O)N1 (centres unmarked) [compound 43, N-(1-((1s,4s)-4-((2-(2-(2-((2-(2,6-dioxopiperidin-3-yl)-1,3-dioxoisoindolin-5-yl)oxy)ethoxy)ethoxy)ethoxy)methyl)cyclohexyl)-5-(piperidin-1-ylmethyl)-1H-benzo[d]imidazol-2-yl)-3-(trifluoromethyl)benzamide]
10 |  |  | ≤ 6.00 | O=C1CCC(N2C(=O)c3ccc(OCCOC[C@H]4CC[C@@H](n5c(NC(=O)c6cccc(C(F)(F)F)c6)nc6cc(F)ccc65)CC4)cc3C2=O)C(=O)N1 (some centres unmarked) [compound 45]
11 |  |  | ≤ 6.00 | COc1cccc(-n2c(NC(=O)c3cccc(C(F)(F)F)c3)nc3cc(CN4CCN(CCOCCOc5ccc6c(c5)C(=O)N(C5CCC(=O)NC5=O)C6=O)CC4)ccc32)c1 (centres unmarked) [compound 57, N-(5-((4-(2-(2-((2-(2,6-dioxopiperidin-3-yl)-1,3-dioxoisoindolin-5-yl)oxy)ethoxy)ethyl)piperazin-1-yl)methyl)-1-(3-methoxyphenyl)-1H-benzo[d]imidazol-2-yl)-3-(trifluoromethyl)benzamide]
12 |  |  | > 7.52 | COc1cc2nn(C3CCN(CCOCCOCCNc4cccc5c4C(=O)N(C4CCC(=O)NC4=O)C5=O)CC3)cc2cc1NC(=O)c1cccc(C(F)(F)F)n1 (centres unmarked) [compound 62, N-(2-(1-(2-(2-(2-((2-(2,6-dioxopiperidin-3-yl)-1,3-dioxoisoindolin-4-yl)amino)ethoxy)ethoxy)ethyl)piperadin-4-yl)-6-methoxy-2H-indazol-5-yl)-6-(trifluoromethyl)picolinamide]
13 |  |  | > 7.52 | COc1cc2nn(C3CCN(CCOCCOCCOCCNc4cccc5c4C(=O)N(C4CCC(=O)NC4=O)C5=O)CC3)cc2cc1NC(=O)c1cccc(C(F)(F)F)n1 (centres unmarked) [compound 64, N-(2-(1-(2-(2-(2-(2-((2-(2,6-dioxopiperidin-3-yl)-1,3-dioxoisoindolin-4-yl)amino)ethoxy)ethoxy)ethoxy)ethyl)piperadin-4-yl)-6-methoxy-2H-indazol-5-yl)-6-(trifluoromethyl)picolinamide]
14 |  | 50 to 70% |  | O=C1CCC(N2C(=O)c3cccc(NCCOCCOCCN4CCN(Cc5ccc6c(c5)nc(NC(=O)c5cccc(C(F)(F)F)c5)n6C5CCC(CO)CC5)CC4)c3C2=O)C(=O)N1 (centres unmarked) [compound 66, N-(5-((4-(2-(2-(2-((2-(2,6-dioxopiperidin-3-yl)-1,3-dioxoisoindolin-4-yl)amino)ethoxy)ethoxy)ethyl)piperazin-1-yl)methyl)-1-((1s,4s)-4-(hydroxymethyl)cyclohexyl)-1H-benzo[d]imidazol-2-yl)-3-(trifluoromethyl)benzamide]
15 | 30 to 100 nM | > 70% |  | O=C1CCC(N2C(=O)c3ccc(OC4CCC(CN5CCN(Cc6ccc7c(c6)nc(NC(=O)c6cccc(C(F)(F)F)c6)n7C6CCC(CO)CC6)CC5)CC4)cc3C2=O)C(=O)N1 (centres unmarked) [compound 67, N-(5-((4-((4-((2-(2,6-dioxopiperidin-3-yl)-1,3-dioxoisoindolin-5-yl)oxy)cycloethyl)methyl)piperazin-1-yl)methyl)-1-((1s,4s)-4-(hydroxymethyl)cyclohexyl)-1H-benzo[d]imidazol-2-yl)-3-(trifluoromethyl)benzamide]

— patent US11065231B2, “Compounds and methods for the targeted degradation of interleukin-1 receptor- associated kinase 4 polypeptides” (Arvinas Operations, Inc., priority 2017, dated 2021)
